Values of other authors in patent US5246969A, “Di-propargyl-containing aryl/alkylsulfonyl-terminated alanine amino-diol compounds for treatment of hypertension” (G. D. Searle & Co., priority 1992, dated 1993).
Square brackets hold non-standard residues; d marks the D form. Peptide text beside a SMILES is read from it. * marks the point of attachment. Sta = CC(C)C[C@H](N)[C@@H](O)CC(=O)O; Isovaleryl = CC(C)CC(=O)*

Test system: hog renin
Conditions: nephrectomized rats after the injection of hog renin

In the case of CC(C)CC(=O)N[C@H](C(=O)N[C@H](C(=O)N[C@@H](CC(C)C)[C@@H](O)CC(=O)N[C@@H](C)C(=O)N[C@@H](CC(C)C)[C@@H](O)CC(=O)O)C(C)C)C(C)C [pepstatin] (Isovaleryl-VV[Sta]A[Sta]-OH), the “blood pressure in vivo” value is given as “reduce blood pressure”.
